Source: publication PMC12037410, “Pharmacological targeting of BMAL1 modulates circadian and immune pathways” (Nature Chemical Biology, 2025)

Each molecule was assayed against BMAL1 (Homo sapiens, UniProt O00327). Conditions: dTmB; binder.
Design: PASB domain (residues 338–449); Protein thermal shift (PTS) fragment screen on recombinant human BMAL1(PASB), shift of melting temperature

Sequence of BMAL1 (O00327 338-449): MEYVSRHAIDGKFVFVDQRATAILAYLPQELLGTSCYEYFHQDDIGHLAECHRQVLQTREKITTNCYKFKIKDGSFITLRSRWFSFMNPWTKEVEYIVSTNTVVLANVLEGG

| Compound | Bmal1(PASB) dTmB |
| --- | --- |
| CNC(=O)c1cnc(C)cn1 [Prestw-Frag-1350, Compound 286] | 0.06 °C |
| CNCCc1c[nH]c2ccccc12 [Prestw-Frag-1356, Compound 318] | -0.40 °C |
| O=C1COc2ccccc21 [Prestw-Frag-1361, Compound 165] | -0.13 °C |
| COc1ccc2c(c1)OCC2=O [Prestw-Frag-1362, Compound 212] | -0.12 °C |
| OC1(c2ccc(Cl)cc2)CCNCC1 [Prestw-Frag-1365, Compound 373] | -1.00 °C |
| CCCC(=O)c1ccc(F)cc1 [Prestw-Frag-1368, Compound 311] | -0.19 °C |
| COc1ccc2cc[nH]c2c1 [Prestw-Frag-1372, Compound 392] | 0.28 °C |
| Oc1ccc2cc[nH]c2c1 [Prestw-Frag-1374, Compound 33] | 0.97 °C |
| O=C(OC1CCCCC1)c1ccccc1O [Prestw-Frag-1382, Compound 265] | 0.09 °C |
| NCC(O)COc1cccc2ccccc12 (stereo not shown) [Prestw-Frag-1389, Compound 450] | 1.58 °C |
| NS(=O)(=O)c1ccccc1C(F)(F)F [Prestw-Frag-1394, Compound 374] | -0.07 °C |
| c1cc2c(cc1CN1CCNCC1)OCO2 [Prestw-Frag-1397, Compound 232] | -0.60 °C |
| c1cnc(N2CCNCC2)nc1 [Prestw-Frag-1398, Compound 399] | -0.21 °C |
| COC(=O)C(CO)c1ccccc1 (stereo not shown) [Prestw-Frag-1406, Compound 266] | -0.21 °C |
| Cc1cn[nH]c1C [Prestw-Frag-1408, Compound 109] | -1.01 °C |
| NNC(=O)c1ccncc1 [Prestw-Frag-1419, Compound 226] | -0.26 °C |
| NNC(=O)c1ccccc1 [Prestw-Frag-1420, Compound 187] | -0.31 °C |
| c1cnc2[nH]ncc2c1 [Prestw-Frag-1428, Compound 174] | -0.31 °C |
| NC(=O)c1ccccc1O [Prestw-Frag-1439, Compound 86] | 0.06 °C |
| c1ccc(-c2ccccc2-c2nn[nH]n2)cc1 [Prestw-Frag-1441, Compound 357] | -0.44 °C |
| c1ccc(CC2NCCc3ccccc32)cc1 (stereo not shown) [Prestw-Frag-1444, Compound 267] | -1.30 °C |
| COc1ccc(CCN(C)C)cc1OC [Prestw-Frag-1445, Compound 247] | -0.12 °C |

| Compound | Bmal1(PASB) dTmB |
| --- | --- |
| CNCCc1ccc(OC)c(OC)c1 [Prestw-Frag-1446, Compound 257] | -0.19 °C |
| CN(C)C(=O)C(c1ccccc1)c1ccccc1 [Prestw-Frag-1453, Compound 166] | -0.94 °C |
| CCN(CC)Cc1cc(N)ccc1O [Prestw-Frag-1462, Compound 5] | -4.46 °C |
| Nc1nc2ccc(C(=O)c3ccccc3)cc2[nH]1 [Prestw-Frag-1471, Compound 466] | -1.29 °C |
| c1ccc(CNc2ccccn2)cc1 [Prestw-Frag-1475, Compound 204] | -1.06 °C |
| CN(C)CCNCc1ccccc1 [Prestw-Frag-1476, Compound 397] | -0.27 °C |
| CC(=O)NCCc1c[nH]c2ccccc12 [Prestw-Frag-1478, Compound 417] | -0.27 °C |
| COc1ccc2[nH]cc(CCN)c2c1 [Prestw-Frag-1480, Compound 3] | 3.24 °C |
| Nc1c(Cl)ccc2nsnc12 [Prestw-Frag-1492, Compound 2] | -1.34 °C |
| Cc1cnc(C(=O)O)cn1 [Prestw-Frag-1494, Compound 98] | 0.14 °C |
| O=C(O)c1cnccn1 [Prestw-Frag-1495, Compound 269] | 0.04 °C |
| O=C(O)CC[C@H](NC(=O)c1ccccc1)C(=O)O [Prestw-Frag-1499, Compound 195] | 0.09 °C |
| COc1cc(C)cc(C)c1C [Prestw-Frag-1506, Compound 359] | -0.12 °C |
| Cc1nccn1CCO [Prestw-Frag-1517, Compound 258] | -0.20 °C |
| CNCC(c1ccc(OC)cc1)C1(O)CCCCC1 (stereo not shown) [Prestw-Frag-1523, Compound 157] | -0.81 °C |
| CN(C)C(=O)Oc1ccccc1 [Prestw-Frag-1540, Compound 384] | -0.26 °C |
| Nc1ccc([N+](=O)[O-])cc1Cl [Prestw-Frag-1543, Compound 463] | 0.66 °C |
| O=C(Nc1ccccc1Cl)c1ccccc1O [Prestw-Frag-1545, Compound 383] | 1.33 °C |
| COC(=O)C1=C(C)NC(C)=C(C(=O)OC)C1 [Prestw-Frag-1547, Compound 26] | -1.89 °C |
| COc1ccc(N2CCN(c3ccc(N)cc3)CC2)cc1 [Prestw-Frag-1557, Compound 35] | 0.19 °C |
| O=c1[nH]nc(Cc2ccc(Cl)cc2)c2ccccc12 [Prestw-Frag-1559, Compound 61] | -0.44 °C |
| O=c1[nH]ncc2ccccc12 [Prestw-Frag-1560, Compound 345] | -0.38 °C |

| Compound | Bmal1(PASB) dTmB |
| --- | --- |
| O=c1[nH]nc(Cc2ccccc2)c2ccccc12 [Prestw-Frag-1561, Compound 106] | -0.90 °C |
| CC(C)CC(N)C1(c2ccc(Cl)cc2)CCC1 (stereo not shown) [Prestw-Frag-1566, Compound 459] | -2.54 °C |
| Cc1cc(C(C)(C)C)cc(C)c1CC1=NCCN1 [Prestw-Frag-1575, Compound 425] | -1.26 °C |
| O=c1[nH]c2ccccc2n1C1CCNCC1 [Prestw-Frag-1587, Compound 407] | -0.86 °C |
| OCCOc1cccc2[nH]ccc12 [Prestw-Frag-1595, Compound 110] | -0.17 °C |
| NCCc1c[nH]c2ccc(O)cc12 [Prestw-Frag-1643, Compound 78] | -0.60 °C |
| Oc1ccc2[nH]ccc2c1 [Prestw-Frag-1645, Compound 308] | 0.24 °C |
| Cc1cc(N)no1 [Prestw-Frag-1647, Compound 292] | -0.16 °C |
| Nc1ccnn1-c1ccccc1 [Prestw-Frag-1648, Compound 208] | -0.34 °C |
| OC(c1ccccc1)(c1ccccc1)C1CCNCC1 [Prestw-Frag-1654, Compound 403] | -1.27 °C |
| NC(=O)CN1C(=O)c2ccccc2C1=O [Prestw-Frag-1661, Compound 297] | -0.12 °C |
| Cc1ccc(S(=O)(=O)NC(N)=O)cc1 [Prestw-Frag-1667, Compound 248] | 0.07 °C |
| O=c1[nH]nc2ccccn12 [Prestw-Frag-1673, Compound 287] | -1.05 °C |
| O=C(O)C(CO)c1ccccc1 (stereo not shown) [Prestw-Frag-1686, Compound 284] | -1.23 °C |
| CC(N)COc1ccccc1 (stereo not shown) [Prestw-Frag-1691, Compound 270] | 0.11 °C |
| c1cc2c(s1)CCNC2 [Prestw-Frag-1694, Compound 112] | -0.53 °C |
| Clc1cccc(CN2CCNCC2)c1 [Prestw-Frag-1700, Compound 62] | -0.92 °C |
| Clc1ccc(-c2cncnc2)cc1 [Prestw-Frag-1704, Compound 385] | -1.51 °C |
| CCCC(=O)Nc1ccc(O)c(C(C)=O)c1 [Prestw-Frag-1716, Compound 95] | -1.04 °C |
| CCCC(=O)Nc1cccc(C(C)=O)c1 [Prestw-Frag-1717, Compound 428] | -0.30 °C |
| c1ccc2c(c1)CNc1ccccc1C2 [Prestw-Frag-1722, Compound 6] | -1.75 °C |
| COc1cc(C(N)=O)cc(OC)c1OC [Prestw-Frag-1731, Compound 341] | -0.33 °C |

| Compound | Bmal1(PASB) dTmB |
| --- | --- |
| CCN(CC)CCOC(=O)c1ccccc1 [Prestw-Frag-1735, Compound 406] | -0.48 °C |
| O=C1CCOc2ccccc21 [Prestw-Frag-1740, Compound 360] | -0.05 °C |
| Clc1ccc(C(c2ccccc2)N2CCNCC2)cc1 (stereo not shown) [Prestw-Frag-1741, Compound 476] | -4.68 °C |
| O=C(NCc1cccnc1)c1ccc(O)cc1 [Prestw-Frag-1747, Compound 457] | -0.46 °C |
| CC(=O)Nc1ncc([N+](=O)[O-])s1 [Prestw-Frag-1750, Compound 291] | 0.07 °C |
| O=C(O)CCCc1ccc(-c2ccccc2)cc1 [Prestw-Frag-1767, Compound 455] | -2.43 °C |
| O=C(O)CCC(=O)c1ccccc1 [Prestw-Frag-1768, Compound 87] | -0.11 °C |
| CNCCC(c1ccccc1)c1ccccc1 [Prestw-Frag-1772, Compound 410] | -1.48 °C |
| COc1ccc(Cl)cc1C(N)=O [Prestw-Frag-1775, Compound 316] | -0.78 °C |
| CC(=O)Nc1ccccn1 [Prestw-Frag-1782, Compound 170] | -0.28 °C |
| Cc1cccc(O)c1 [Prestw-Frag-1791, Compound 216] | -0.80 °C |
| Cc1c(N)c(=O)n(-c2ccccc2)n1C [Prestw-Frag-1807, Compound 18] | -0.46 °C |
| COc1ccc(OCC(N)=O)cc1 [Prestw-Frag-1812, Compound 300] | 0.07 °C |
| c1ccc(C(c2ccccc2)N2CCCNCC2)cc1 [Prestw-Frag-1817, Compound 445] | -1.89 °C |
| NNCCc1ccccc1 [Prestw-Frag-1818, Compound 31] | -1.46 °C |
| Cc1[nH]c2ccccc2c1CC(=O)O [Prestw-Frag-1824, Compound 477] | -6.48 °C |
| O=C(COc1ccc(Cl)cc1)N1CCNCC1 [Prestw-Frag-1832, Compound 244] | -1.08 °C |
| Cc1ccccc1NC(=O)C(C)N (stereo not shown) [Prestw-Frag-1856, Compound 389] | 0.12 °C |
| CC(C(=O)O)c1ccccc1 (stereo not shown) [Prestw-Frag-1859, Compound 194] | -0.02 °C |
